Measurements reported in patent US9670209B2 (ACADIA Pharmaceuticals Inc., priority 2013, dated 2017).
Marks after values point to notes of the source that are not given here.

Columns and labels:
[1] = target: human M3 muscarinic acetylcholine receptor (Homo sapiens (Human), UniProt P20309); test: R-SAT (Receptor Selection and Amplification) assay, M3; format: cell-based
Experimental: (§1) Briefly, NIH-3T3 cells were grown in 96-well tissue culture plates to 70% to 80% confluence. Cells were transfected with plasmid DNAs using Superfect Reagent (QIAGEN, Valencia, Calif.) as per the manufacturer's protocols. […] Cells were then grown in a humidified atmosphere with 5% ambient CO2 for 4 to 6 days. Media were then removed from the plates, and beta-galactosidase activity was measured by the addition of o-nitrophenyl-D-galactopyranoside (in phosphate-buffered saline with 5% NP-40 detergent). […] All data represent the mean of three wells and were analyzed using the computer program Excel Fit, and EC50 determinations were made using least-squares fit analysis with GraphPad Software Inc. (San Diego, Calif.) software.

M1 muscarinic receptor = M1 muscarinic receptor (Homo sapiens (Human), UniProt P11229); test: M1 GTPγS binding assay; format: biochemical;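 for Emax: efficacy relative to carbachol as 100%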
M1 muscarinic receptor, sequence (P11229 whole entry): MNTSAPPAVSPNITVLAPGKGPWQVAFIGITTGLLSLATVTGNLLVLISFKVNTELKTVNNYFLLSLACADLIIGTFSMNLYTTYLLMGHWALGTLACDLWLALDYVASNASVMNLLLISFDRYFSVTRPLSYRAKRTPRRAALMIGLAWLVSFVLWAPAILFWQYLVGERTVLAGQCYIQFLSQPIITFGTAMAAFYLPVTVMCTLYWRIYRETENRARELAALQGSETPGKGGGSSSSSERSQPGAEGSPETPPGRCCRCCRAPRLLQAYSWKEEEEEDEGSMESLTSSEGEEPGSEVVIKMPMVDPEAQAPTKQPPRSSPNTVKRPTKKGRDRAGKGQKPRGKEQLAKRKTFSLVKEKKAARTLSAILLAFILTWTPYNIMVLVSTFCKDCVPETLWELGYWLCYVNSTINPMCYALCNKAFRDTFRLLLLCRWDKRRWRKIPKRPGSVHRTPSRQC

tear secretion = test: Tear secretion (phenol red thread) in mice; format: in vivo, balb/c mice
Experimental: The tear distance, in mm, is recorded. The mice were not anesthetized or otherwise sedated. […] Data are analyzed by repeated measures ANOVA with post-hoc Bonferroni comparisons to vehicle. […] Further details can be seen in FIG. 2.

[2] = target: human M1 muscarinic acetylcholine receptor (Homo sapiens (Human), UniProt P11229); test: R-SAT (Receptor Selection and Amplification) assay, M1; format: cell-based
human M1 muscarinic acetylcholine receptor, sequence (P11229 whole entry): as above
Experimental: as §1

[3] = target: human M2 muscarinic acetylcholine receptor (Homo sapiens (Human), UniProt P08172); test: R-SAT (Receptor Selection and Amplification) assay, M2; format: cell-based
human M2 muscarinic acetylcholine receptor, sequence (P08172 whole entry): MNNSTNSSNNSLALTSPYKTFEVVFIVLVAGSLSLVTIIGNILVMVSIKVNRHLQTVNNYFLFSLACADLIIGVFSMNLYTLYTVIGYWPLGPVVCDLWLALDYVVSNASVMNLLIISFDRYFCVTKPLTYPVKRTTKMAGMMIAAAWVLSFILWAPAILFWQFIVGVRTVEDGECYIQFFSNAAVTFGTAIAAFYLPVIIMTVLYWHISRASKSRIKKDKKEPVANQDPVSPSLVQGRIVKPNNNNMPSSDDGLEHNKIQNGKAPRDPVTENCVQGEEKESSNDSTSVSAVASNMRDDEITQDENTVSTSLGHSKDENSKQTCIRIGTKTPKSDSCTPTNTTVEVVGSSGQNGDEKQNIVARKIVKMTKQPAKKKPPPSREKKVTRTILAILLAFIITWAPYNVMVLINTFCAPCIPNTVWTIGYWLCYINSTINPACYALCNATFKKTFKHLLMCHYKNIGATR
Experimental: as §1

[4] = Ocular pharmacokinetic evaluation in rabbits; format: in vivo, New Zealand White rabbits
Experimental: The experimental animals were normotensive male New Zealand White rabbits. A single drop (35 μl) of a compound, (302s), at a concentration of 0.126% (corrected for oxalate salt weight) was administered to each eye by pipette. At 0.25, 0.5, 1, 2, 4, 8, and 24 hours, plasma, aqueous humor, vitreous humor, cornea, iris-ciliary body, retina, and choroid were collected (2 rabbits/timepoint, or 4 eyes/timepoint). Approximately 0.5 ml of blood was collected and placed in EDTA tubes. Blood samples were kept on ice during the duration of sample collection, and centrifuged to harvest plasma. Animals were euthanized and ocular tissues were collected and placed in vials and kept on dry ice for the duration of the collections. All ocular tissue and plasma samples were stored at or below −60° C. until bioanalysis. […] The plasma concentration at most timepoints was >100-fold lower than the compound concentration in target ocular tissues (iris/ciliary body, cornea, retina). The concentration of compound 302s in the target ocular tissues remained at active levels up to at least 24 h. Abbreviations used in FIG. 3 have the following meanings AH (Aqueous Humor), VH (Vitreous Humor) ICB (Iris Ciliary Body), CenP Retina (Center Punch Retina), Per Retina (Peripheral Retina) CenP Choroid (Center Punch Choroid), and Per Choroid (Peripheral Choroid)

human M3 muscarinic acetylcholine receptor, sequence (P20309 whole entry): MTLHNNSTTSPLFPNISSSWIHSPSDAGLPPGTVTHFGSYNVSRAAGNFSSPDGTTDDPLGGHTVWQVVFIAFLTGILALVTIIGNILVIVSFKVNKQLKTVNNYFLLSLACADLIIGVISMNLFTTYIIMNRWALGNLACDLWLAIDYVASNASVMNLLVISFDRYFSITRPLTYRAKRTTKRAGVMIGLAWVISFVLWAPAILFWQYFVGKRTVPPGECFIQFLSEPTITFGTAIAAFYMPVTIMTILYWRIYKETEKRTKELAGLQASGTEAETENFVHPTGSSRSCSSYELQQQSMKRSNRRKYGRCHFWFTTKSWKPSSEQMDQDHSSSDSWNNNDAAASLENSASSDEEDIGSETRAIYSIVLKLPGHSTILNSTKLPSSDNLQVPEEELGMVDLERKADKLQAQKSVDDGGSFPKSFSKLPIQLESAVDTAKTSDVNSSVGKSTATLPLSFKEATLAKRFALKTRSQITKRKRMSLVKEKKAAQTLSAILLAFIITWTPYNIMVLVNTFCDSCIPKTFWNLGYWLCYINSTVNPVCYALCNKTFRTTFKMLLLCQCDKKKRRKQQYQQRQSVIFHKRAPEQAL

In the case of `C[C@H](CN1[C@@H]2CC[C@H]1C[C@@H](OCC1CC1)C2)Cn1ncc2ccccc21` [Compound 302S, 1-((R)-3-((1R,3R,5S)-3-(cyclopropylmethoxy)-8-azabicyclo[3.2.1]octan-8-yl)-2-methylpropyl)-1H-indazole], the “M3 PEC50 AVG” value ([1]; R-SAT, NIH-3T3 cells) is reported as 6.8, the Emax ([1]; read-out: M3 EFF % AVG) is reported as 12% and the “M1 GTPγS PEC50 AVG” value (M1 muscarinic receptor; GTPγS binding) is reported as 8.5. The Emax (M1 muscarinic receptor; read-out: M1 GTPγS EFF % AVG) was 98%, the Tear secretion (tear secretion; first study of Table 2, 1 hr post-dosing, 5 μl drop of 0.1% to each eye) was 156% * and the “Tear secretion compared to vehicle” value (tear secretion; pilocarpine 24-hour study, 3 and 6 hours post-dosing) was “statistically significant improved tear secretion”. For the same compound, the “Tear secretion compared to vehicle” value (tear secretion; pilocarpine 24-hour study, 24 hours post-dosing) was “trend toward significance”, the “Enhancement of tear secretion compared to pilocarpine” value (tear secretion; pilocarpine 24-hour study, all time points) was “exceeded the effect of pilocarpine at all time points” and the Tear secretion (tear secretion; second study of Table 2, 1 hr post-dosing, 5 μl drop of 0.1% to each eye) was 157% *. The Tear secretion (tear secretion; second study of Table 2, 3 hr post-dosing, 5 μl drop of 0.1% to each eye) was 155% *, the Tear secretion (tear secretion; third study (pilocarpine 24-hour study), 3 hr post-dosing, 0.1% 5 μl drop, Pilocarpine 0.2% 20 μl drop) was 152% * and the Tear secretion (tear secretion; third study (pilocarpine 24-hour study), 6 hr post-dosing, 0.1% 5 μl drop, Pilocarpine 0.2% 20 μl drop) was 151% *. The Tear secretion (tear secretion; third study (pilocarpine 24-hour study), 24 hr post-dosing, 0.1% 5 μl drop, Pilocarpine 0.2% 20 μl drop) was 120% †, the “M1 PEC50 AVG” value ([2]; NIH-3T3 cells) was 8.9 and the Emax ([2]; percent efficacy vs carbachol = 100 percent, read-out: M1 EFF % AVG) was 111%. For the same compound, the “M2 PEC50 AVG” value ([3]; R-SAT, NIH-3T3 cells) was 7.6, the Emax ([3]; read-out: M2 EFF % AVG) was 153% and the Kp ([4]; male, New Zealand White, rabbit, retina (against plasma), topical, 35 μl of 0.126% per eye, most timepoints, iris/ciliary body, cornea, retina, read-out: Plasma concentration lower than concentration in target ocular tissues) was over 100. For the same compound, the Tmax ([4]; male, New Zealand White, rabbit, topical, 35 μl of 0.126% per eye, all tissues, single 35 μl drop of 0.126% to each eye) was 15 min, the Cmax ([4]; male, New Zealand White, rabbit, topical, 35 μl of 0.126% per eye, plasma, single 35 μl drop of 0.126% to each eye, read-out: Maximal plasma concentration (Cmax)) was 6.4 ng/g and the “Time the concentration in the target ocular tissues remained at active levels” value ([4]; target ocular tissues, single topical drop) was “at least 24 h”.
